This note sets out measurements from ChEMBL document CHEMBL5335854, “Genomic and Metabolomic Analyses of Nocardiopsis maritima YSL2 as the Mycorrhizosphere Bacterium of Suaeda maritima (L.) Dumort” (2024).

Values after ≈ are worked out from the molar mass of the structure shown.

For the first experiment, the system named is Bacillus subtilis. Nature of the experiment: Antibacterial activity against Bacillus subtilis KCCM 11316 assessed as inhibition of bacterial growth incubated for 24 hrs by broth dilution method. It is filed as functional.
Consider `CC[C@@H](C)[C@H]1NC(=O)[C@H](Cc2ccccc2)NC(=O)[C@@H](CCCCN)NC(=O)[C@H](Cc2ccc(O)cc2)NC(=O)[C@H]([C@@H](C)CC)NC(=O)[C@@H](CC(C)C)NC1=O`, for which the MIC is over 128 µg/mL.

For the molecule `CC[C@H](C)[C@@H]1NC(=O)[C@@H](CC(C)C)NC(=O)[C@@H](C(C)C)NC(=O)[C@H](Cc2ccccc2)NC(=O)[C@@H](CCCCN)NC(=O)[C@H](Cc2ccc(O)cc2)NC1=O`, the MIC was over 128 µg/mL.

With `NC[C@H]1O[C@H](O[C@H]2[C@H](O)[C@@H](O[C@H]3O[C@H](CO)[C@@H](O)[C@H](N)[C@H]3O)[C@H](N)C[C@@H]2N)[C@H](O)[C@@H](O)[C@@H]1O` [KANAMYCIN], the minimal inhibitory concentration (MIC) turned out to be 2 µg/mL (≈ 4.13 µM).

For a further experiment, the system named is Staphylococcus epidermidis. Briefly: Antibacterial activity against Staphylococcus epidermidis KCCM 35494 assessed as inhibition of bacterial growth incubated for 24 hrs by broth dilution method. It is filed as functional.
Take `CC[C@@H](C)[C@H]1NC(=O)[C@H](Cc2ccccc2)NC(=O)[C@@H](CCCCN)NC(=O)[C@H](Cc2ccc(O)cc2)NC(=O)[C@H]([C@@H](C)CC)NC(=O)[C@@H](CC(C)C)NC1=O`: the MIC came out at 4 µg/mL (≈ 5.14 µM).

Turning to `CC[C@H](C)[C@@H]1NC(=O)[C@@H](CC(C)C)NC(=O)[C@@H](C(C)C)NC(=O)[C@H](Cc2ccccc2)NC(=O)[C@@H](CCCCN)NC(=O)[C@H](Cc2ccc(O)cc2)NC1=O`, the minimal inhibitory concentration (MIC) is 8 µg/mL (≈ 10.5 µM).

For the molecule `NC[C@H]1O[C@H](O[C@H]2[C@H](O)[C@@H](O[C@H]3O[C@H](CO)[C@@H](O)[C@H](N)[C@H]3O)[C@H](N)C[C@@H]2N)[C@H](O)[C@@H](O)[C@@H]1O` [KANAMYCIN], the MIC came to 0.5 µg/mL (≈ 1.03 µM).

In the next experiment the test system is Escherichia coli. Nature of the experiment: Antibacterial activity against Escherichia coli KCCM 11234 assessed as inhibition of bacterial growth incubated for 24 hrs by broth dilution method. It is filed as functional.
Take `CC[C@@H](C)[C@H]1NC(=O)[C@H](Cc2ccccc2)NC(=O)[C@@H](CCCCN)NC(=O)[C@H](Cc2ccc(O)cc2)NC(=O)[C@H]([C@@H](C)CC)NC(=O)[C@@H](CC(C)C)NC1=O`: the minimal inhibitory concentration (MIC) was determined as 16 µg/mL (≈ 20.6 µM).

With `CC[C@H](C)[C@@H]1NC(=O)[C@@H](CC(C)C)NC(=O)[C@@H](C(C)C)NC(=O)[C@H](Cc2ccccc2)NC(=O)[C@@H](CCCCN)NC(=O)[C@H](Cc2ccc(O)cc2)NC1=O`, the MIC came out at 16 µg/mL (≈ 20.9 µM).

Regarding `NC[C@H]1O[C@H](O[C@H]2[C@H](O)[C@@H](O[C@H]3O[C@H](CO)[C@@H](O)[C@H](N)[C@H]3O)[C@H](N)C[C@@H]2N)[C@H](O)[C@@H](O)[C@@H]1O` [KANAMYCIN], the MIC stood at 1 µg/mL (≈ 2.06 µM).

For another experiment, the system named is Pseudomonas fluorescens. Briefly: Antibacterial activity against Pseudomonas fluorescens KCCM 11362 assessed as inhibition of bacterial growth incubated for 24 hrs by broth dilution method. The experiment is classed as functional.
`CC[C@@H](C)[C@H]1NC(=O)[C@H](Cc2ccccc2)NC(=O)[C@@H](CCCCN)NC(=O)[C@H](Cc2ccc(O)cc2)NC(=O)[C@H]([C@@H](C)CC)NC(=O)[C@@H](CC(C)C)NC1=O`: the minimal inhibitory concentration (MIC) came out at 16 µg/mL (≈ 20.6 µM).

On to `CC[C@H](C)[C@@H]1NC(=O)[C@@H](CC(C)C)NC(=O)[C@@H](C(C)C)NC(=O)[C@H](Cc2ccccc2)NC(=O)[C@@H](CCCCN)NC(=O)[C@H](Cc2ccc(O)cc2)NC1=O`, for which the minimal inhibitory concentration (MIC) is 32 µg/mL (≈ 41.9 µM).

Consider `NC[C@H]1O[C@H](O[C@H]2[C@H](O)[C@@H](O[C@H]3O[C@H](CO)[C@@H](O)[C@H](N)[C@H]3O)[C@H](N)C[C@@H]2N)[C@H](O)[C@@H](O)[C@@H]1O` [KANAMYCIN], for which the MIC was determined as 1 µg/mL (≈ 2.06 µM).
